{"source": "PubChem BioAssay AID1259409", "about": "(Chemical Carcinogenesis Research Information System (CCRIS), 2018)", "origin": "cited, not measured here", "test_system": "rodent chemically induced tumor inhibition, incidence and multiplicity", "assay": "CCRIS tumor inhibitor studies", "settings": "Dose [Inhibitor]: 0, Route [Inhibitor]: ORAL", "data": [{"smiles": "C[C@H](CCC(=O)O)[C@H]1CC[C@H]2[C@@H]3[C@@H](O)C[C@@H]4C[C@H](O)CC[C@]4(C)[C@H]3CC[C@]12C", "values": [{"measurement": "tumour outcome (control, treated, inhibition, significance)", "setting": "Carcinogen: AZOXYMETHANE, 25843-45-2, 0.2% IN DIET FOR 28 WK BEGINNING 2 WK PRIOR TO CARCINOGEN TREATMENT (STUDY DURATION: 30 WK), Species: RAT, Strain/Sex: F344/MALE, Target Tissue: Type of Lesion: COLON: TUMOR, Dose [Carcinogen]: 15 MG/KG BW 1/WK FOR 2 WK, Promoter: CHOLIC ACID, 81-25-4", "result": "30/47 (64%), 20/47 (43%), 33%, not significant"}, {"measurement": "tumour outcome (control, treated, inhibition, significance)", "setting": "Carcinogen: AZOXYMETHANE, 25843-45-2, 0.2% IN DIET FOR 28 WK BEGINNING 2 WK PRIOR TO CARCINOGEN TREATMENT (STUDY DURATION: 30 WK), Species: RAT, Strain/Sex: F344/MALE, Target Tissue: Type of Lesion: COLON: TUMOR, Dose [Carcinogen]: 15 MG/KG BW 1/WK FOR 2 WK, Promoter: NONE USED", "result": "20/43 (47%), 23/48 (48%), -2%, not significant"}, {"measurement": "tumour outcome (control, treated, inhibition, significance)", "setting": "Carcinogen: AZOXYMETHANE, 25843-45-2, 0.4% IN DIET FOR 28 WK BEGINNING 2 WK PRIOR TO CARCINOGEN TREATMENT (STUDY DURATION: 30 WK), Species: RAT, Strain/Sex: F344/MALE, Target Tissue: Type of Lesion: COLON: TUMOR, Dose [Carcinogen]: 15 MG/KG BW 1/WK FOR 2 WK, Promoter: NONE USED", "result": "20/43 (47%), 10/45 (22%), 53%, p<0.05"}]}, {"smiles": "O=CC(O)C(O)C(O)CO", "note": "(stereo not given)", "values": [{"measurement": "tumour outcome (control, treated, inhibition, significance)", "setting": "Carcinogen: 1,2-DIMETHYLHYDRAZINE, 540-73-8, 10% IN FIBER-FREE DIET FOR 24 WK BEGINNING POST CARCINOGEN TREATMENT (STUDY DURATION: 32 WK), Species: RAT, Strain/Sex: SPRAGUE-DAWLEY/MALE, Target Tissue: Type of Lesion: COLON: ADENOCARCINOMA, Dose [Carcinogen]: 12 MG/KG BW 1/WK FOR 8 WK, Promoter: NONE USED", "result": "73%, 53%, 27%, p=0.05"}]}, {"smiles": "C=CC(C)(O)CCC=C(C)C", "note": "(stereo not given)", "values": [{"measurement": "tumour outcome (control, treated, inhibition, significance)", "setting": "Carcinogen: AZOXYMETHANE, 25843-45-2, 5 MG/G IN DIET FOR 22 WK BEGINNING 3 D POST LAST CARCINOGEN DOSE (STUDY DURATION: 25 WK), Species: RAT, Strain/Sex: F344/MALE, Target Tissue: Type of Lesion: DUODENUM: ADENOCARCINOMA, Dose [Carcinogen]: 15 MG/KG BW 2/WK FOR 3 WK, Promoter: NONE USED", "result": "50%, 26%, 48%, not significant"}, {"measurement": "tumour outcome (control, treated, inhibition, significance)", "setting": "Carcinogen: AZOXYMETHANE, 25843-45-2, 5 MG/G IN DIET FOR 22 WK BEGINNING 3 D POST LAST CARCINOGEN DOSE (STUDY DURATION: 25 WK), Species: RAT, Strain/Sex: F344/MALE, Target Tissue: Type of Lesion: LARGE BOWEL: ADENOMATOUS POLYP, Dose [Carcinogen]: 15 MG/KG BW 2/WK FOR 3 WK, Promoter: NONE USED", "result": "82%, 79%, 4%, not significant"}]}, {"smiles": "C#C[C@]1(O)CC[C@H]2[C@@H]3CCC4=CC(=O)CC[C@@H]4[C@H]3CC[C@@]21CC", "note": "(tested in a mixture with another compound)", "values": [{"measurement": "tumour outcome (control, treated, inhibition, significance)", "setting": "Carcinogen: 3-METHYLCHOLANTHRENE, 56-49-5, 1/200 OF A PILL CONTAINING 0.25 UG ETHINYLESTRADIOL AND 2.5 UG NORGESTREL 1/D FOR 60 D (STUDY DURATION: 60 D), Species: MOUSE, Strain/Sex: SWISS/FEMALE, Target Tissue: Type of Lesion: UTERINE CERVIX: TUMOR, Dose [Carcinogen]: 300 UG IN BEESWAX IMPREGNATED COTTON THREAD INSERTED INTO CANAL OF UTERINE CERVIX FOR DURATION OF STUDY, Promoter: NONE USED", "result": "2/23 (9%), 1/16 (6%), 33%, not significant"}, {"measurement": "tumour outcome (control, treated, inhibition, significance)", "setting": "Carcinogen: 3-METHYLCHOLANTHRENE, 56-49-5, 1/200 OF A PILL CONTAINING 0.25 UG ETHINYLESTRADIOL AND 2.5 UG NORGESTREL 1/D FOR 90 D (STUDY DURATION: 90 D), Species: MOUSE, Strain/Sex: SWISS/FEMALE, Target Tissue: Type of Lesion: UTERINE CERVIX: TUMOR, Dose [Carcinogen]: 300 UG IN BEESWAX IMPREGNATED COTTON THREAD INSERTED INTO CANAL OF UTERINE CERVIX FOR DURATION OF STUDY, Promoter: NONE USED", "result": "6/23 (26%), 1/29 (3%), 88%, p<0.05"}, {"measurement": "tumour outcome (control, treated, inhibition, significance)", "setting": "Carcinogen: 3-METHYLCHOLANTHRENE, 56-49-5, 1/2000 OF A PILL CONTAINING 0.025 UG ETHINYLESTRADIOL AND 0.25 UG OF NORGESTREL 1/D FOR 60 D (STUDY DURATION: 60 D), Species: MOUSE, Strain/Sex: SWISS/FEMALE, Target Tissue: Type of Lesion: UTERINE CERVIX: TUMOR, Dose [Carcinogen]: 300 UG IN BEESWAX IMPREGNATED COTTON THREAD INSERTED INTO CANAL OF UTERINE CERVIX FOR DURATION OF STUDY, Promoter: NONE USED", "result": "2/23 (9%), 0/22 (0%), 100%, not significant"}, {"measurement": "tumour outcome (control, treated, inhibition, significance)", "setting": "Carcinogen: 3-METHYLCHOLANTHRENE, 56-49-5, 1/2000 OF A PILL CONTAINING 0.025 UG ETHINYLESTRADIOL AND 0.25 UG OF NORGESTREL 1/D FOR 90 D (STUDY DURATION: 90 D), Species: MOUSE, Strain/Sex: SWISS/FEMALE, Target Tissue: Type of Lesion: UTERINE CERVIX: TUMOR, Dose [Carcinogen]: 300 UG IN BEESWAX IMPREGNATED COTTON THREAD INSERTED INTO THE CANAL OF THE UTERINE CERVIX FOR THE DURATION OF STUDY, Promoter: NONE USED", "result": "6/23 (26%), 1/30 (3%), 88%, p<0.05"}]}]}
